# Where a chain is given by its changes, count along the chain named.
# Key:
# Mps1 kinase domain [1] = target: T1, Mps1 kinase domain (Homo sapiens, UniProt P33981, C604Y); test: microscale thermophoresis, DY-547P1 labelled protein; assay type: binding
# T1 sequence (P33981 519-808 C604Y): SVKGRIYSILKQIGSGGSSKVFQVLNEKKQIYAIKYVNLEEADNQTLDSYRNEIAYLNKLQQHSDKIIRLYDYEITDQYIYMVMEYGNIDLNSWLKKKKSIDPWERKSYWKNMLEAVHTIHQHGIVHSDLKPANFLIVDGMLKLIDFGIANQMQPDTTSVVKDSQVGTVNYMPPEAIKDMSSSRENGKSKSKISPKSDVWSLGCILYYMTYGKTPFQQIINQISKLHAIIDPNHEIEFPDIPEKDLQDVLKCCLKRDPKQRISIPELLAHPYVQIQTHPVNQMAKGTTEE
# Mps1 kinase domain [2] = target: T2, Mps1 kinase domain (Homo sapiens, UniProt P33981); test: as above; assay type: binding
# T2 sequence (P33981 519-808): T1 sequence (P33981 519-808 C604Y) with Y86C
# Mps1 kinase domain [3] = target: T3, Mps1 kinase domain (Homo sapiens, UniProt P33981, C604W); test: as above; assay type: binding
# T3 sequence (P33981 519-808 C604W): T1 sequence (P33981 519-808 C604Y) with Y86W
# GST-Mps1 full length [4] = target: T4, GST-Mps1 full length (Homo sapiens, UniProt P33981, C604W); test: biochemical
# T4 sequence (P33981 1-857 C604W): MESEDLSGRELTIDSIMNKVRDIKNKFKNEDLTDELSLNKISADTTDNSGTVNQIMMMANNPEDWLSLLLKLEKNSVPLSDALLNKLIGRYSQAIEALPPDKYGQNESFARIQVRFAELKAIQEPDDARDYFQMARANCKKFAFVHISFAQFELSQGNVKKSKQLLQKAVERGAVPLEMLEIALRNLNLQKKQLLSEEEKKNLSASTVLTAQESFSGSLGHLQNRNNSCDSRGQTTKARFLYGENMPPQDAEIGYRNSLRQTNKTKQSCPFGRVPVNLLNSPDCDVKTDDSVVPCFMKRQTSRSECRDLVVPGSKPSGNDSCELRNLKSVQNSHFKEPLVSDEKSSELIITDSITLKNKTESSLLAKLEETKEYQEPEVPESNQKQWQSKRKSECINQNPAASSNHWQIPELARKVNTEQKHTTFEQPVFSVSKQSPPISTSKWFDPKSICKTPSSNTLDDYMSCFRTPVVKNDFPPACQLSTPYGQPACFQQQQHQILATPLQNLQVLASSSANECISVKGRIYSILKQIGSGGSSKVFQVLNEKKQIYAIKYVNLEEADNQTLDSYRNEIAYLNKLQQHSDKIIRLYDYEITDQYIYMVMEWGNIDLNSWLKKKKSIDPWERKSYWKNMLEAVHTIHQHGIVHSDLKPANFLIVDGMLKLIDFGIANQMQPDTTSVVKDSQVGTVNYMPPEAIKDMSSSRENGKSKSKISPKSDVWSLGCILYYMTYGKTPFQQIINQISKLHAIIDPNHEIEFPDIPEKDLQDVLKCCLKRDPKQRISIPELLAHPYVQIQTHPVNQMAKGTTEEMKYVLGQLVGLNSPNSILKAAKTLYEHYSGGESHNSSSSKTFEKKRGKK
# GST-Mps1 full length [5] = target: T5, GST-Mps1 full length (Homo sapiens, UniProt P33981, C604Y); test: biochemical
# T5 sequence (P33981 1-857 C604Y): T4 sequence (P33981 1-857 C604W) with W604Y
# GST-Mps1 full length [6] = target: T6, GST-Mps1 full length (Homo sapiens, UniProt P33981); test: biochemical
# T6 sequence (P33981 1-857): T4 sequence (P33981 1-857 C604W) with W604C
compound,measurement,setting,value
"CCc1cccc(CC)c1NC(=O)c1nn(C)c2c1CCc1cnc(Nc3ccc(N4CCN(C)CC4)cc3OC)nc1-2 [Cpd-5, N-(2,6-diethylphenyl)-8-((2-methoxy-4-(4-methylpiperazin-1-yl)phenyl)amino)-1-methyl-4,5-dihydro-1H-pyrazolo[4,3-h]quinazoline-3-carboxamide]",Kd,Mps1 kinase domain [1],471 ± 50 nM
same,Kd,Mps1 kinase domain [2],1.6 ± 0.2 nM
same,Kd,Mps1 kinase domain [3],349 ± 81 nM
same,IC50,GST-Mps1 full length [4],19 ± 1 nM
same,IC50,GST-Mps1 full length [5],170 ± 30 nM
same,IC50,GST-Mps1 full length [6],9.2 ± 1.6 nM

# From paper doi:10.1101/112086v2 (biorxiv, 2017)
